ChEMBL document CHEMBL4673406, “Discovery and Preclinical Evaluation of BMS-986242, a Potent, Selective Inhibitor of Indoleamine-2,3-dioxygenase 1” (ACS Med Chem Lett, 2021)

Legend:
[1] = Permeability of the compound at pH 7.4 by PAMPA; format: ADME; details: read-out: permeability
[2] = Toxicity in rat assessed as effect on cardiovascular system by telemetry; details: in vivo
[3] = AUC in rat at 0.5 mg/kg, iv; format: ADME, organism-based; parameters: dose 0.5 mg/kg; details: in vivo
[4] = Half life in dog at 1 mg/kg, iv; format: ADME, organism-based, Canis lupus familiaris; details: in vivo
[5] = Protein binding in human plasma assessed as free fraction; format: ADME, cell-free
[6] = Metabolic stability in mouse hepatocytes assessed as CYP450-mediated compound metabolism by measuring half life; format: ADME, cell-based, Hepatocyte
[7] = Metabolic stability in cynomolgus monkey hepatocytes assessed as UGT-mediated compound glucuronidation by measuring half life; format: ADME, cell-based, Macaca fascicularis, Hepatocyte
[8] = Metabolic stability in rat hepatocytes assessed as UGT-mediated compound glucuronidation by measuring half life; format: ADME, cell-based, Hepatocyte
[9] = Inhibition of calcium channel (unknown origin) by patch clamp method; parameters: species or system Homo sapiens
[10] = Metabolic stability in rat hepatocytes assessed as CYP450-mediated compound metabolism by measuring half life; format: ADME, cell-based, Hepatocyte
[11] = biological target: Cytochrome P450 2C19 (Homo sapiens, UniProt P33261); assay: Inhibition of human CYP2C19; format: ADME
[12] = biological target: Cytochrome P450 (Homo sapiens, UniProt P04798+P05177+P05181+P08684+P10632+P10635+P11509+P11712+P13584+P20813+P20815+P20853+P24462+P24903+P33260+P33261+P51589+P78329+P98187+Q02928+Q08477+Q16678+Q16696+Q5TCH4+Q6VVX0+Q7Z449+Q8TAV3+Q96SQ9+Q9HB55); assay: Metabolic stability in human hepatocytes assessed as CYP450-mediated compound metabolism by measuring half life; format: ADME, cell-based, Hepatocyte
[13] = in vitro; details: human, liver microsomes
Description: Metabolic stability in human liver microsomes assessed as parent compound remaining at 0.5 uM measured after 10 mins

[14] = biological target: T1, Nuclear receptor subfamily 1 group I member 2 (Homo sapiens, UniProt O75469); assay: Transactivation of PXR (unknown origin); format: ADME
T1 sequence (O75469 whole entry): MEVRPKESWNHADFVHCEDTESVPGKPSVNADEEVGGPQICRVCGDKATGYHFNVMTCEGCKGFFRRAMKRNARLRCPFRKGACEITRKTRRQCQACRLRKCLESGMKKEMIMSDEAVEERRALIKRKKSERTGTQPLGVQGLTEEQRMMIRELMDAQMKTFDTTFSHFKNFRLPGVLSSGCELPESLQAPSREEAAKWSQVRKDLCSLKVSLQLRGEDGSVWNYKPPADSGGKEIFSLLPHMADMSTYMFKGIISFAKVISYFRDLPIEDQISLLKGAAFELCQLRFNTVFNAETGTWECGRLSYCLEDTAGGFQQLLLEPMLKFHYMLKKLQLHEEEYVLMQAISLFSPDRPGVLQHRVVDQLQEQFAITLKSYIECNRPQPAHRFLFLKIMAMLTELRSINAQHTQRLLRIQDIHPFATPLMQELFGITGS

[15] = Protein binding in mouse plasma assessed as free fraction; format: ADME, cell-free
[16] = biological target: Indoleamine 2,3-dioxygenase 1 (Mus musculus, UniProt P28776); assay: Inhibition of IDO1 in IFNgamma-stimulated mouse M109 cells preincubated for 2 hrs followed by IFNgamma stimulation and measured after 18 hrs by; format: cell-based
[17] = Half life in mouse at 0.5 mg/kg, iv; format: ADME, organism-based; details: in vivo
[18] = Volume of distribution at steady state in mouse at 0.5 mg/kg, iv; format: ADME, organism-based; details: in vivo

Sequence of Indoleamine 2,3-dioxygenase 1 (P28776 whole entry): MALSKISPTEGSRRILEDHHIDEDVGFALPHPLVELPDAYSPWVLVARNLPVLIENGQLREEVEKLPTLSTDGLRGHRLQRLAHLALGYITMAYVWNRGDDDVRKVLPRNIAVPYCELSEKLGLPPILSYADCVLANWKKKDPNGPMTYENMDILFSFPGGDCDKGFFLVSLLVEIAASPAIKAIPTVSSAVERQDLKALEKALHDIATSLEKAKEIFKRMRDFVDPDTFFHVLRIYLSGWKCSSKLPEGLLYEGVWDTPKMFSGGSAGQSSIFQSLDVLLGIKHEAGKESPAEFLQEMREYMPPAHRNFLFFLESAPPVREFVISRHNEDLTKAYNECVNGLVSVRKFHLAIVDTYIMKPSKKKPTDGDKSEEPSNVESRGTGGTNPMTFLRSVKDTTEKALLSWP
Sequence of Cytochrome P450 2C19 (P33261 whole entry): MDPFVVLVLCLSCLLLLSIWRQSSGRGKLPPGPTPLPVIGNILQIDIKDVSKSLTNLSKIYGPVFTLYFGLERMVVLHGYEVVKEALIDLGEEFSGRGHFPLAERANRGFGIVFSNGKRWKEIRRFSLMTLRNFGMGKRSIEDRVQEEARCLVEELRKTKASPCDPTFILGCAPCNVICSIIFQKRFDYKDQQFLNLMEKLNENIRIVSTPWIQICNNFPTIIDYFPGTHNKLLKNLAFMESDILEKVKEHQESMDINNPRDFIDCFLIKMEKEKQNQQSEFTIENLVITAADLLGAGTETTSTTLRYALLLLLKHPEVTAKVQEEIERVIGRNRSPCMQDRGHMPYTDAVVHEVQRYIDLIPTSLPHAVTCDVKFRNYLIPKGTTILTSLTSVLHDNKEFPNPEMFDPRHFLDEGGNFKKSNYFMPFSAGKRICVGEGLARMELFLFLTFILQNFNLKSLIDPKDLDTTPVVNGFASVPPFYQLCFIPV

- Papp [1]: 283 ×10⁻⁶ cm/s
- AUC [3]: 5.6 µM·h
- t1/2 [4]: 19 min
- Fu [5]: < 0.3%
- half-life [6]: 4 min
- half-life [7]: > 120 min
- half-life [8]: 93 min
- IC50 [9]: > 25 µM
- half-life [10]: 10 min
- IC50 [11]: 3.37 µM
- half-life [12]: 14 min
- remaining at 10 min, 0.5 µM [13]: 54%
- EC50 [14]: > 50 µM
- Fu [15]: < 0.2%
- IC50 [16]: 0.002 µM
- t1/2 [17]: 8 min
- Vdss [18]: 17 L/kg
Structure (SMILES): C[C@@H](NC(=O)c1ccc(Cl)cc1)[C@H]1CC[C@@H](c2ccnc3ccc(F)cc32)CC1
- Activity [2]: Non-Toxic
